Experimental data reported in ChEMBL document CHEMBL1201862, “PubChem BioAssay data set” (2004).
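1) Cells in 96-well plates. 2) Compound, 48 h, 5 concentrations. 3) Linear interpolation between surrounding doses. 4) Unreached endpoint = highest concentration. GI50 is the concentration that inhibits growth by half.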 The source made the active and inactive calls. No stated cut-off is given here; in the data, active = GI50 up to about 1.1 µM and inactive = higher.

What was measured:
Test in all cases: NCI-60 cell line screen, 48 h
[1] = tested on: HOP-92
[2] = tested on: BT-549
[3] = tested on: OVCAR-4
[4] = tested on: RXF 393
[5] = tested on: NCI/ADR-RES
[6] = tested on: HT-29
[7] = tested on: SK-MEL-28
[8] = tested on: PC-3
[9] = tested on: MDA-MB-231
[10] = tested on: SNB-75
[11] = tested on: UO-31
[12] = tested on: HCT-15
[13] = tested on: KM12
[14] = tested on: OVCAR-8
[15] = tested on: Hs-578T
[16] = tested on: UACC-257
[17] = tested on: HCT-116
[18] = tested on: LOX IMVI
[19] = tested on: SK-MEL-5
[20] = tested on: M14
[21] = tested on: U-251
[22] = tested on: SK-OV-3
[23] = tested on: NCI-H226
[24] = tested on: MDA-N
[25] = tested on: SF-539
[26] = tested on: COLO 205
[27] = tested on: SW-620
[28] = tested on: EKVX
[29] = tested on: NCI-H460
[30] = tested on: HOP-62
[31] = tested on: OVCAR-5
[32] = tested on: CAKI-1
[33] = tested on: T47D
[34] = tested on: K562
[35] = tested on: NCI-H23
[36] = tested on: 786-0
[37] = tested on: CCRF-CEM
[38] = tested on: IGROV-1
[39] = tested on: SN12C
[40] = tested on: UACC-62
[41] = tested on: SNB-19
[42] = tested on: Malme-3M
[43] = tested on: A549
[44] = tested on: MCF7
[45] = tested on: SF-268
[46] = tested on: TK-10
[47] = tested on: DU-145
[48] = tested on: MDA-MB-435
[49] = tested on: MOLT-4
[50] = tested on: ACHN
[51] = tested on: HCC 2998
[52] = tested on: OVCAR-3
[53] = tested on: SK-MEL-2
[54] = tested on: A498
[55] = tested on: SF-295
[56] = tested on: RPMI-8226
[57] = tested on: NCI-H522
[58] = tested on: HL-60

CCOP(=O)(OCC)/C(=C/c1cccs1)CC(C)=O
GI50 [1]: > 100 µM (inactive)
GI50 [2]: > 100 µM (inactive)
GI50 [3]: > 100 µM (inactive)
GI50 [4]: > 100 µM (inactive)
GI50 [5]: > 100 µM (inactive)
GI50 [6]: > 100 µM (inactive)
GI50 [7]: > 100 µM (inactive)
GI50 [8]: > 100 µM (inactive)
GI50 [9]: > 100 µM (inactive)
GI50 [10]: > 100 µM (inactive)
GI50 [11]: > 100 µM (inactive)
GI50 [12]: > 100 µM
GI50 [13]: > 100 µM (inactive)
GI50 [14]: > 100 µM (inactive)
GI50 [15]: > 100 µM (inactive)
GI50 [16]: > 100 µM (inactive)
GI50 [17]: > 100 µM (inactive)
GI50 [18]: > 100 µM (inactive)
GI50 [19]: > 100 µM (inactive)
GI50 [20]: > 100 µM (inactive)
GI50 [21]: > 100 µM (inactive)
GI50 [22]: > 100 µM (inactive)
GI50 [23]: > 100 µM (inactive)
GI50 [24]: > 100 µM (inactive)
GI50 [25]: > 100 µM (inactive)
GI50 [26]: > 100 µM (inactive)
GI50 [27]: > 100 µM (inactive)
GI50 [28]: > 100 µM (inactive)
GI50 [29]: > 100 µM (inactive)
GI50 [30]: > 100 µM (inactive)
GI50 [31]: > 100 µM (inactive)
GI50 [32]: > 100 µM (inactive)
GI50 [33]: 73.8 µM (inactive)
GI50 [34]: > 100 µM (inactive)
GI50 [35]: > 100 µM (inactive)
GI50 [36]: > 100 µM (inactive)
GI50 [37]: > 100 µM (inactive)
GI50 [38]: > 100 µM (inactive)
GI50 [39]: > 100 µM (inactive)
GI50 [40]: > 100 µM (inactive)
GI50 [41]: > 100 µM (inactive)
GI50 [42]: > 100 µM (inactive)
GI50 [43]: > 100 µM (inactive)
GI50 [44]: > 100 µM (inactive)
GI50 [45]: > 100 µM (inactive)
GI50 [46]: > 100 µM (inactive)
GI50 [47]: > 100 µM (inactive)
GI50 [48]: > 100 µM (inactive)
GI50 [49]: 9.71 µM (inactive)
GI50 [50]: > 100 µM (inactive)
GI50 [51]: > 100 µM (inactive)
GI50 [52]: > 100 µM (inactive)
GI50 [53]: > 100 µM (inactive)
GI50 [54]: 75.3 µM (inactive)
GI50 [55]: > 100 µM (inactive)

C=CCN(c1cc(OCc2ccccc2)c2c(c(C)cn2S(=O)(=O)c2ccc([N+](=O)[O-])cc2)c1[N+](=O)[O-])S(C)(=O)=O
GI50 [1]: > 100 µM (inactive)
GI50 [2]: > 100 µM (inactive)
GI50 [3]: > 100 µM (inactive)
GI50 [4]: > 100 µM (inactive)
GI50 [5]: > 100 µM (inactive)
GI50 [6]: 8.77 µM (inactive)
GI50 [7]: > 100 µM (inactive)
GI50 [8]: > 100 µM (inactive)
GI50 [9]: > 89.5 µM (inactive)
GI50 [10]: > 37.8 µM (inactive)
GI50 [11]: > 100 µM (inactive)
GI50 [12]: 31.6 µM
GI50 [13]: 4.86 µM (inactive)
GI50 [14]: > 100 µM (inactive)
GI50 [15]: > 100 µM (inactive)
GI50 [16]: > 100 µM (inactive)
GI50 [17]: > 100 µM (inactive)
GI50 [18]: > 100 µM (inactive)
GI50 [56]: > 100 µM (inactive)
GI50 [19]: 43.7 µM (inactive)
GI50 [20]: 29.1 µM (inactive)
GI50 [21]: > 100 µM (inactive)
GI50 [22]: > 100 µM (inactive)
GI50 [23]: > 100 µM (inactive)
GI50 [24]: 4.07 µM (inactive)
GI50 [25]: > 100 µM (inactive)
GI50 [26]: > 100 µM (inactive)
GI50 [28]: > 100 µM (inactive)
GI50 [57]: > 100 µM (inactive)
GI50 [29]: > 100 µM (inactive)
GI50 [30]: > 100 µM (inactive)
GI50 [31]: > 100 µM (inactive)
GI50 [32]: > 100 µM (inactive)
GI50 [33]: > 100 µM (inactive)
GI50 [34]: 5.08 µM (inactive)
GI50 [35]: > 100 µM (inactive)
GI50 [36]: > 100 µM (inactive)
GI50 [38]: > 100 µM (inactive)
GI50 [39]: > 100 µM (inactive)
GI50 [40]: > 100 µM (inactive)
GI50 [41]: > 100 µM (inactive)
GI50 [42]: > 100 µM (inactive)
GI50 [43]: > 84.5 µM (inactive)
GI50 [44]: > 100 µM (inactive)
GI50 [45]: > 100 µM (inactive)
GI50 [46]: > 100 µM (inactive)
GI50 [47]: > 100 µM (inactive)
GI50 [48]: 1.47 µM (inactive)
GI50 [49]: > 100 µM (inactive)
GI50 [50]: > 100 µM (inactive)
GI50 [51]: > 100 µM (inactive)
GI50 [52]: > 100 µM (inactive)
GI50 [53]: > 100 µM (inactive)
GI50 [55]: > 78.5 µM (inactive)

C[Si](C)(OCCS(=O)(=O)O)C1(Cc2cccc3ccccc23)S(=O)(=O)OCCOS1(=O)=O
GI50 [1]: 11.2 µM (inactive)
GI50 [2]: 18.5 µM (inactive)
GI50 [3]: 20.7 µM (inactive)
GI50 [5]: 33.7 µM (inactive)
GI50 [7]: 17.1 µM (inactive)
GI50 [8]: 19 µM (inactive)
GI50 [9]: 18.1 µM (inactive)
GI50 [10]: 15.5 µM (inactive)
GI50 [11]: 17.9 µM (inactive)
GI50 [12]: 19.6 µM
GI50 [13]: 14.4 µM (inactive)
GI50 [14]: 19.5 µM (inactive)
GI50 [15]: 33.2 µM (inactive)
GI50 [16]: 28.1 µM (inactive)
GI50 [17]: 18.5 µM (inactive)
GI50 [18]: 16.2 µM (inactive)
GI50 [56]: 18.4 µM (inactive)
GI50 [58]: 8.26 µM (inactive)
GI50 [19]: 17.3 µM (inactive)
GI50 [20]: 17.7 µM (inactive)
GI50 [21]: 20.3 µM (inactive)
GI50 [22]: 15.6 µM (inactive)
GI50 [23]: 19.5 µM (inactive)
GI50 [24]: 17.8 µM (inactive)
GI50 [25]: 18.6 µM (inactive)
GI50 [26]: 12.3 µM (inactive)
GI50 [27]: 16.3 µM (inactive)
GI50 [28]: 17.7 µM (inactive)
GI50 [57]: 13.7 µM (inactive)
GI50 [29]: 21.1 µM (inactive)
GI50 [30]: 19.6 µM (inactive)
GI50 [31]: 18.7 µM (inactive)
GI50 [32]: 17.5 µM (inactive)
GI50 [33]: 17.1 µM (inactive)
GI50 [34]: 26.4 µM (inactive)
GI50 [35]: 27.8 µM (inactive)
GI50 [37]: 18.3 µM (inactive)
GI50 [38]: 16.9 µM (inactive)
GI50 [39]: 18.2 µM (inactive)
GI50 [40]: 17.9 µM (inactive)
GI50 [41]: 19.1 µM (inactive)
GI50 [43]: 23 µM (inactive)
GI50 [44]: 19.4 µM (inactive)
GI50 [45]: 23.2 µM (inactive)
GI50 [46]: 20.9 µM (inactive)
GI50 [47]: 19.6 µM (inactive)
GI50 [48]: 18.6 µM (inactive)
GI50 [49]: 34.9 µM (inactive)
GI50 [50]: 18.1 µM (inactive)
GI50 [51]: 16.5 µM (inactive)
GI50 [52]: 12.6 µM (inactive)
GI50 [53]: 18.9 µM (inactive)
GI50 [54]: 15.9 µM (inactive)
GI50 [55]: 20.2 µM (inactive)
